Structures can show the parent of a compound that is named as a salt.

One series has as its system pepsin secretion. The experiment in a line: Preventive effect on pepsin secretion in pylorus-ligated rats. In kind it is in vivo, Male SD-strain rats. Particulars: 100 mg/kg oral, 5 h after administration, hydrate. The procedure:
(§1) Preventive effect on acid and pepsin secretions
(§2) Male SD-strain rats (6 to 7 weeks old) were starved for 48 hours, and then the pylori were ligated. Immediately after ligation, a solution or suspension of a test compound in distilled water was administered orally into the stomachs in an amount of 0.2 ml per 100 g of body weight (Dose: 100 mg/kg). Five hours after said administration of the test compound, the rats were sacrificed and the stomachs were removed. The gastric contents were centrifuged at 2,500 rpm for 10 minutes and the gastric juice was collected as the supernatant. The concentration of pepsin in the gastric juice was determined by Anson's method (c.f., J. Gen. Physiol., 22, pp. 77-89 (1938)) using hemoglobin as the substrate, and the preventive effect of the test compound on the pepsin secretion was estimated in terms of "decrease in pepsin concentration" according to the following formula: [formula]

For a further series, the system named is gastric acid secretion. The series is described as follows: Preventive effect on gastric acid secretion in pylorus-ligated rats. In kind it is in vivo, Male SD-strain rats. Particulars: 100 mg/kg oral, 5 h after administration, hydrate. As for the experimental part: as §1, §2
On the other hand, the concentration of free acid in the gastric juice was determined by titrating said gastric juice to pH 7.0 with 0.1N NaOH, and the preventive effect of the test compound on the gastric acid secretion was estimated in terms of "the decrease in acidity of gastric juice" according to the following formula: [formula] (Results)

For another series, the system named is Shay rat ulcers. The experiment in a line: Effect on Shay rat ulcers (pylorus-ligated). In kind it is in vivo, Male SD-strain rats. To be noted: 17 h. As for the experimental part: Male SD-strain rats (6 to 7 weeks old) were starved for 48 hours and then the pylori were ligated. Immediately after ligation, a solution or suspension of a test compound in distilled water was administered orally into the stomachs in an amount of 0.2 ml per 100 g of body weight (Dose: 200 or 300 mg/kg). Seventeen hours after the administration of the test compound, the degree of ulceration in forestomach was examined according to the method of Takagi et al (Chem. Pharm. Bull., 11(10), pp. 1282-1290 (1963)) with a modified scoring system. Depending on the diameter of each lesions, the ulcers were classified into the following 4 grades. Ulcer index was calculated by the sum of the number of ulcers in each degree multiplied by respective ulcer score. Further, based on the ulcer index determined above, the preventive effect of the test compound on Shay rat ulcer was calculated by the following formula: [formula] (Results)

The test system of another series is gastric mucus secretion. The experiment in a line: Effect on gastric mucus secretion (alcian blue binding). The format is in vivo, Male Sprague-Dawley rats. To be noted: 100 mg/kg oral, 1 h, hydrate; for Alcian blue binding: control (water) 198.5 ± 6.4. The procedure:
Stimulating effect of a test compound on gastric mucus secretion was examined by the method of Corne et al. (J. Physiol., 242, pp. 116-117(1974); J. Pharm. Pharmacol., 33, pp. 348-352(1981)). Male Sprague-Dawley rats (6-7 weeks old; one group: 6 rats) were fasted for 20 hours before the experiments. Water was given ad libitum and coprophagy was prevented by using cages with wide-mesh floors. A test compound dissolved or suspended in distilled water was administered orally to the rats at a dose of 100 mg/kg. One hour after the administration of the test compound, the stomachs were dissected, opened along the greater curvature, rinsed in ice-cold 0.25M sucrose, and the rumen was discarded. Then, the stomachs were incubated in 10 ml of a 0.15M sucrose-0.05M sodium acetate solution (pH 5.8) containing alcian blue (1 mg/ml), at room temperature for 1.5 hours. Finally, the stomachs were placed in 15 ml of a 0.5M magnesium chloride solution for 2 hours with occasional shaking and then removed, and the magnesium chloride solution was shaken briefly with 10 ml of diethyl ether. The optical density of the aqueous layer was read at 605 nm, and the degree of alcian blue binding was expressed as μg alcian blue/g of tissue. The stimulating effect of the test compound on gastric mucus secretion was estimated in terms of "the increase in alcian blue binding" which was calculated by the following formula: [formula] (Results)

The subject of another series is gastric mucous membrane. The experiment in a line: Protective effect on gastric mucous membrane (excised stomach in artificial gastric juice). To be noted: 37° C., 60 min; for Amount of tyrosine: control 2.42 ± 0.15; for Amount of tyrosine / Inhibition (%) of digestion of mucous membrane: hydrate. Further details: species or system Male Sprague-Dawley rats. As for the experimental part:
Protective effect of a test compound on gastric mucous membrane was examined by the method of Diago et al. (Yakugaku Zasshi, 101, 452-457(1981)). Male Sprague-Dawley rats (6-7 weeks old; one group: 5 rats) were fasted for 20 hours before the experiments. Water was given ad libitum and coprophagy was prevented by using cages with wide-mesh floors. The stomach was excised, opened along the greater curvature, rinsed in physiological saline solution, and the rumen was discarded. The stomach was incubated in 10 ml of an artificial gastric juice (100 mM HCl, 0.3% pepsin, 0.2% NaCl) containing a test compound, at 37° C. for 60 minutes. After the incubation, 2 ml of 7% trichloroacetic acid were added to 0.5 ml of medium, and the mixture was centrifuged. The amount of tyrosine in the supernatant was measured by using Folin-Ciocelteu reagent (J. gen. Physiol., 16, 59-63(1932)), and expressed as mg tyrosine/g tissue. The protective effect of the test compound on gastric mucous membrane was estimated in terms of "the inhibition of digestion of mucous membrane" which was calculated by the following formula: [formula] (Results)

For series [1], the system named is urinary electrolytes. The experiment in a line: Effect on urine volume and urinary electrolytes (Experiment 7). In kind it is in vivo, Male SD-strain rats. To be noted: for Urine volume: 5 h, 2 rats per cage, control 12.3; for Na/K: 5 h urine, control 5.8. As for the experimental part:
Male SD-strain rats (6 to 7 weeks old) were starved overnight, and a physiological saline solution (3 ml/100 g of body weight) was orally administered to the rats. One hour later, a solution or suspension of a test compound in a 0.25% CMC-physiological saline solution was administered orally to the rats in an amount of 3 ml per 100 g of body weight (Dose: 50 and 500 mg/kg). Immediately after administration of the test compound, the rats were placed into metabolic cages (2 rats per cage) and deprived of water and food for 5 hours. The urine samples which were excreted during a 5 hour period were collected. Sodium and potassium in the urine were estimated by a flame photometer (Hitachi Model-205).

For a further series, the system named is rats. The series is described as follows: Acute oral toxicity in rats (Experiment 10). In kind it is in vivo. Particulars: male SD-strain rats, 7 days, hydrate, 10080 min. As for the experimental part:
(§3) After male SD-strain rats (6-7 weeks old) were starved for 20 hours, a solution or suspension of a test compound in distilled water was administered orally to the rats in an amount of one ml per 100 g of body weight. After administration of the test compound, the rats were allowed free access to water and food.

The nature of a further series: in vivo. Particulars: mouse, oral, male ddY-strain mice, 7 days. The procedure: After male ddY-strain mice (4 weeks old) were starved for 4 hours, a suspension of a test compound in distilled water containing a small amount of Tween 80 was administered orally to the mice in an amount of 0.1 ml per 10 g of body weight. After administration of the test compound, the mice were allowed free access to water and food. […] As a result, the LD50 of sulfodehydroabietic acid calcium salt was more than 2,000 mg/kg.

For the next series, the system named is aspirin-induced ulcers. The series is described as follows: Effect on aspirin-induced ulcers. To be noted: p.o. 0.8 m mol./kg (400 mg/kg); aspirin 200 mg/kg. In kind it is in vivo, Male Donryu-strain rats. As for the experimental part: Male Donryu-strain rats (8 to 9 weeks old) were starved overnight, and a solution or suspension of a test compound in distilled water was administered orally into the stomachs in an amount of one ml per 100 g of body weight. Half an hour later, a suspension of aspirin in 0.25% CMC solution was administered orally to the rats in an amount of 0.5 ml per 100 g of body weight (Dose: 200 mg/kg). Four hours after the administration of aspirin, the rats were sacrificed and the stomachs were removed and inflated by injecting 10 ml of 1% formalin solution to fix the inner layers of the gastric walls. The stomach was then incised along the greater curvature and the lengths of the lesions were measured and summated to give ulcer index (in mm) for each animal. The preventive effect of the test compound on aspirin-induced ulcers were calculated by the following formula: [formula] (Results)

The test system of series [2] is urinary electrolytes. The series is described as follows: Effect on urinary electrolytes (Experiment 9). In kind it is in vivo, Male SD-strain rats. To be noted: for Urine volume: 4 h, control 6.5 ± 0.3; for Na/K ratio: 4 h urine, control 5.8 ± 0.6. As for the experimental part: Male SD-strain rats (6 to 7 weeks old, one group: 6 rats) were starved overnight, and a physiological saline solution (3 ml/100 g of body weight) was orally administered to the rats. One hour later, a suspension of a test compound in a physiological saline solution was administered orally to the rats in an amount of 3 ml per 100 g of body weight (Dose: 500 or 1,000 mg/kg). Immediately after administration of the test compound, the rats were placed into metabolic cages (one rat per cage) and deprived of water and food for 4 hours. The urine samples which were excreted during a 4 hour period were collected. Sodium and potassium in the urine were estimated by a flame photometer (Hitachi Model-205).

Series [3] can be described thus: Acute oral toxicity in rats (Experiment 10). The format is in vivo. To be noted: rat, in vivo, male SD-strain rats, 7 days. The procedure: as §3
Where [4] appears, read: 1 mg/ml in artificial gastric juice.
The mark [5] stands for this setting: 4 mg/ml in artificial gastric juice.

As a reminder, the LD50 is the dose expected to kill half of the subjects tested. For `CC(C)c1cc2c(cc1S(=O)(=O)O)[C@@]1(C)CCC[C@@](C)(C(=O)O)[C@@H]1CC2` [Sulfodehydroabietic acid calcium salt, sulfodehydroabietic acid calcium salt 2.5 hydrate], the “Decrease (%) in pepsin concentration” value in the series with pepsin secretion worked out at 99%. The “Decrease (%) in acidity of gastric juice” value in the series on gastric acid secretion is reported as 30%. The “Preventive effect on Shay rat ulcers” value with Shay rat ulcers (300 mg/kg oral) is given as 100%. Moreover, in the series with gastric mucus secretion, the Alcian blue binding was found to be 284.7 ± 14.9 μg/g tissue and the “Increase (%) in alcian blue binding” value turned out to be 44%. In the series with gastric mucous membrane (setting [4]), the Amount of tyrosine came to 1.72 ± 0.08 mg/g tissue and the “Inhibition (%) of digestion of mucous membrane” value is given as 29%. For the same compound, in the series with gastric mucous membrane (setting [5]), the Amount of tyrosine is reported as 0.86 ± 0.04 mg/g tissue and the “Inhibition (%) of digestion of mucous membrane” value was determined as 64%. In the series on urinary electrolytes [1] (50 mg/kg oral), this compound had a Urine volume of 11.5 mL and a Na/K of 5.2. For the same compound, in the series on urinary electrolytes [1] (500 mg/kg oral), the Urine volume came to 11.3 mL and the Na/K is recorded as 6.8. The compound further had an LD50 in the series with rats greater than 2000 mg/kg. This compound also showed an LD50 at 168 h in the series “in vivo” greater than 2000 mg/kg.

The inhibition is the percentage by which the read-out fell short of the control. Turning to `CC(C)c1cc2c(cc1S(=O)(=O)O)[C@@]1(C)CCC[C@@](C)(C(=O)O)[C@@H]1CC2` [Sulfodehydroabietic acid monosodium salt, 1,4a-dimethyl-1-carboxy-6-sulfo-7-isopropyl-1,2,3,4,4a,9,10,10a-octahydro-phenanthrene monosodium salt 5 hydrate], the “Decrease (%) in pepsin concentration” value with pepsin secretion is reported as 96%. In the series with gastric acid secretion, the “Decrease (%) in acidity of gastric juice” value is given as 43%. Moreover, the “Preventive effect on Shay rat ulcers” value with Shay rat ulcers (200 mg/kg oral, hydrate) is 100%. In the series with aspirin-induced ulcers, the “Preventive effect on aspirin-induced ulcers” value came to 68%. Further, in the series with gastric mucus secretion, the Alcian blue binding was determined as 287.3 ± 34.2 μg/g tissue and the “Increase (%) in alcian blue binding” value came to 45%. In the series on gastric mucous membrane (setting [4]), this compound registered an Amount of tyrosine of 1.61 ± 0.13 mg/g tissue. The same compound displayed an Amount of tyrosine in the series with gastric mucous membrane (setting [5]) of 0.95 ± 0.07 mg/g tissue. Besides, in the series with gastric mucous membrane (Rattus norvegicus, 1 h, 1 mg/ml in artificial gastric juice, read-out: Inhibition (%) of digestion of mucous membrane), the inhibition at 1000 µg/mL came out at 33%. Further, the inhibition at 4000 µg/mL in the series on gastric mucous membrane (Rattus norvegicus, 1 h, 4 mg/ml in artificial gastric juice, read-out: Inhibition (%) of digestion of mucous membrane) is 61%. Moreover, in the series on urinary electrolytes [2] (500 mg/kg oral), the Urine volume came to 6.2 ± 0.5 mL and the Na/K ratio came out at 5.6 ± 0.5. In the series on urinary electrolytes [2] (1000 mg/kg oral), the Urine volume was 4.7 ± 0.4 mL and the Na/K ratio is recorded as 5.9 ± 0.2. For the same compound, the “change in urinary sodium-potassium ratio” value with urinary electrolytes [2] (500 or 1000 mg/kg oral, rats, in words) is listed as “no substantial change in urinary sodium-potassium ratio”. Also, the LD50 at 168 h in [3] is greater than 2000 mg/kg.

Source of the values: patent US4529602A, “Method for treatment or prophylaxis of gastro-intestinal disease” (priority 1981, dated 1985).
